Measured values as given in patent US4446136A, “Agents for improvement of peripheral blood flow” (Yamanouchi Pharmaceutical Co., Ltd., priority 1980, dated 1984).

Columns and labels:
[1] = Acute toxicity, overall (Experiment 5); format: in vivo; conditions: summary of Tables 1, 2 and 3
Rat = assay: Acute toxicity (LD50) in rat; format: in vivo; set-up: unit not given here; conditions: intravenous, intraperitoneal, subcutaneous
Sheep = assay: Acute toxicity (LD50 of gelatin) in sheep; format: in vivo; set-up: unit not given here; conditions: intravenous, intraperitoneal, subcutaneous
HeLa S3 = assay: Toxicity of gelatin to cells in culture; format: cell-based
[2] = test system: Lung fibroblasts of human embryo; assay: Toxicity of gelatin to cells in culture; format: cell-based
erythrocytes = assay: Dose-response of gelatin on filtration and hemolysis of erythrocytes (Experiment 4(i)); format: cell-based
Method: (i) Following procedures similar to the Experiment 2 using a concentration of gelatin between 0-2.0 mg/ml, effects of the substance on the filtration ratios of erythrocytes through the membrane filter and the ratio of hemolysis were examined at various concentrations of gelatin.

[3] = Antigenic activity of gelatin; conditions: by itself
[4] = test system: EB virus transformed lymphoblastoid cells P3HR-1; assay: Toxicity of gelatin to cells in culture; format: cell-based
[5] = test system: blood flow in microvessels; assay: Effects on microcirculation in vivo in mesenterium of rabbit with lowered blood pressure (Experiment 3); conditions: other substances, anesthetized rabbit, low arterial blood pressure

Method for human erythrocytes: A mixture of 1 part of human blood and 1 part (v/v) of preservative solution (sodium citrate buffer containing glucose) was washed 4 to 5 times with physiological saline solution and then 2% (by volume) erythrocyte solution was prepared in physiological saline. In the next step, physiological saline solutions containing 0.05% gelatin, 0.1% α1 -acid glycoprotein, 0.1% polyethylene glycol, 0.1% γ-globulin, 0.1% ovomucoid, 0.1% dextran, 0.1% dextran sulfate, 0.1% chondroitin sulfate, or physiological saline alone were mixed with an equal volume of the erythrocyte suspension, and then each mixture was shaken mildly for 30 min at 37° C. Thereafter 1 ml of each mixture was subjected to filtration through a nitrocellulose membrane filter (13 mm in diameter and 5 μm in average size of micropores, made by Sartorius Co.) at 37° C. under a pressure of 80 mmHg/cm^2. The filtrate was immediately subjected to centrifugation for 2 min at 1,500 r.p.m. and from the supernatant, the ratio of hemolysis during filtration was calculated based on absorbance at 420 nm. As to the erythrocytes remaining on the filter, 5 ml of deionized water was added to the erythrocytes on the membrane filter by placing into a test tube, and the resulting hemolysis due to hypotonicis permitted a measurement of absorbance at 420 nm to calculate the ratio of filtered erythrocytes through the membrane.

Substance | acute toxicity (in words) [1] | LD50 of gelatin (Rat) | LD50 of gelatin (Sheep) | Toxicity (50% growth inhibition) (HeLa S3) [µg/mL] | ratio of passage (filtration) of erythrocytes through the filter (human erythrocytes; 0.05% gelatin, 0.1% other substances, 5 μm micropores, 37° C., 80 mmHg/cm^2) | ratio of hemolysis during filtration (in words) (human erythrocytes; 0.05% gelatin, 5 μm micropores, 37° C., vs physiological saline control) | Toxicity (50% growth inhibition) [2] [µg/mL] | filtration ratio on further increase in concentration (erythrocytes; above 0.5 mg/ml gelatin) | concentration at which filtration ratio of erythrocytes reached plateau (erythrocytes; gelatin 0-2.0 mg/ml) [mg/mL] | antigenic activity [3] | Toxicity (50% growth inhibition) [4] [µg/mL] | erythrocytes hemolysed during filtration (human erythrocytes; human, erythrocytes) | actions on microcirculation as observed for gelatin [5]
gelatin | very mild | > 1,000 | > 1,000 | > 100 | increased remarkably | reduced | > 100 | did not improve the filtration ratio | 0.5 | no antigenic activity | > 100 | – | –
dextran sulfate [reference compound] | – | – | – | – | – | – | – | – | – | – | – | 25-30% | did not exert any actions on microcirculation
